Tests used:
Format in all cases: in vivo, mouse
[1] = test system: bone marrow-derived Gr1+Mac1+ sorted (donor) neutrophils; assay: ELISA quantification of myeloperoxidase (MPO) in donor neutrophils of primary transplant; conditions: overnight culture; primary transplant of treated E11.5 AGM
Procedure: Pulsating blood vessels like conditions were stimulated in vitro using FLEXCELL FX-4000 cell stretching bioreactor machine. To analyze roles of pharmacological targets in regulating the endothelial-to-HSC transition, mouse embryo-derived AGM or whole mouse embryo were exposed ex vivo with biomechanical stretching, chemicals, or drugs. Next, hematopoietic colony formation assays were performed by incubating mouse AGM-derived cells in StemCell M3434 media for seven days. Serial transplantation of AGM-derived HSCs in lethally irradiated SJL mice were performed. The stem cell frequency upon biomechanical stretching was analyzed using a limiting dilution assay. To characterize properties of AGM-HSC-derived blood cells in primary transplants, percentage chimerism and reconstitution was measured using FACS, globin transcripts were analyzed using quantitative reverse transcriptase-PCR, myeloperoxidase amount was measured using PICOKINE ELISA kit, TCR-β rearrangement was analyzed using PCR for TCR-β locus, pre-immune IG detection was analyzed using Thermo-Fisher Mouse Ig Isotyping kit, and delayed-type hypersensitivity was analyzed by injecting sheep RBC (Rockland Immunochemicals) in the footpad of pre-sensitized mice. […]

[2] = test system: spleen-sorted Cd3+ T cells (donor); assay: PCR assay for TCR-β rearrangement in donor T cells of primary transplant; conditions: primary transplant of treated E11.5 AGM; Mac1+ myeloid cells negative control
Procedure: (§1) Pulsating blood vessels like conditions were stimulated in vitro using FLEXCELL FX-4000 cell stretching bioreactor machine. To analyze roles of pharmacological targets in regulating the endothelial-to-HSC transition, mouse embryo-derived AGM or whole mouse embryo were exposed ex vivo with biomechanical stretching, chemicals, or drugs. Next, hematopoietic colony formation assays were performed by incubating mouse AGM-derived cells in StemCell M3434 media for seven days. Serial transplantation of AGM-derived HSCs in lethally irradiated SJL mice were performed. The stem cell frequency upon biomechanical stretching was analyzed using a limiting dilution assay. To characterize properties of AGM-HSC-derived blood cells in primary transplants, percentage chimerism and reconstitution was measured using FACS, globin transcripts were analyzed using quantitative reverse transcriptase-PCR, myeloperoxidase amount was measured using PICOKINE ELISA kit, TCR-β rearrangement was analyzed using PCR for TCR-β locus, pre-immune IG detection was analyzed using Thermo-Fisher Mouse Ig Isotyping kit, and delayed-type hypersensitivity was analyzed by injecting sheep RBC (Rockland Immunochemicals) in the footpad of pre-sensitized mice.
T cells (Cd45.2^+, Cd3^+) and myeloid cells (Cd45.2^+, Mac1^+) were FACS sorted from the splenocytes of 16 week-primary transplanted mice. […]

[3] = test system: bone marrow-derived Cd71+ Ter119+ sorted (donor) erythroid cells; assay: qRT-PCR of globin transcripts in donor erythroid cells of primary transplant; conditions: primary transplant of treated E11.5 AGM
Procedure: as §1
FACS was used to sort erythroid precursors (Cd45.2^+, Ter119^+, Cd71^+) from the unlysed bone marrow isolated from AGM-transplanted mice. […]

E11.5 AGM-derived HSCs = assay: Serial transplantation of treated E11.5 AGM-derived HSCs into lethally irradiated mice; conditions: for multi-lineage reconstitution (myeloid, T-cells, B-cells) in primary transplant / peripheral blood chimerism / engraftment in primary transplant: primary recipients; for multi-lineage reconstitution (myeloid, T-cells, B-cells) in primary transplant: week 16; for peripheral blood chimerism / engraftment in primary transplant: weeks 8-16, three embryo equivalent treated AGM donor cells
Procedure: as §1
For primary transplantation, three-embryo equivalents of untreated or treated (cyclic strain or 25 μM Yoda1) AGMs plus splenic helper cells (˜500,000 per mouse) were injected into lethally irradiated (split dose […]) Cd45.1 (SJL) mice by retro-orbital injection. For secondary and tertiary transplants, the bone marrow was isolated (legs, arm, pelvic bone, spine, sternum) from the transplanted mice. The bone marrow was loaded on a FICOLL gradient (HISTOPAQUE-1083 solution, Sigma-Aldrich), and the cells from the buffy coat incubated with biotin-conjugated lineage antibodies and streptavidin microbeads (Miltenyi Biotec). Next, the lineage negative (Lin) cells were separated with MACS LS Columns (Miltenyi Biotec), and the donor Cd45.2 Lin^−Sca1^+-Kit^+ (LSK) cells sorted with a MoFlo Beckman Coulter sorter. Subsequently, the sorted Cd45.2 LSK cells were mixed with Cd45.1 splenic helper cells (˜500,000 per mouse) and transplanted into Cd45.1 irradiated (split dose […]) SJL mice by retro-orbital injection.
AGM cells from explants and ex vivo were stained with Sca1-Pacific-Blue (E13-161.7, Biolegend) and Flk1-APC-Cy7 (Avas 12α1, BD). Blood from transplanted mice was stained with the following antibody cocktail: Cd45.2-Pacific-Blue (104, Biolegend), Cd45.1-FITC (A20, Biolegend), Cd3-PE (145-2C11, Biolegend), Cd8-PE (53-6.7, Biolegend), Mac1-APC (M1/70, Biolegend), Gr1-APC (108412, Biolegend), Cd19-APC-CY7 (6D5, Biolegend), B220-APC-CY7 (RA3-6B2, Biolegend).
Cells from the bone marrow, spleen, thymus, and lymph node from mice transplanted with E11.5 AGM cells were stained with the following antibody panels: Bone marrow LT-HSC: Cd45.2-FITC (104, Biolegend), Ter119-Biotin (TER-119 BD), Gr1-Biotin (RB6-8C5, BD), Cd5-Biotin (53-7.3, BD), Cd8a-Biotin (53-6.7, BD), B220-Biotin (RA3-6B2, BD), Streptavidin-Pacific Blue (eBioscience), Sca1-PE-CY7 (D7, eBioscience), cKit-APC (2B8, eBioscience), Cd48-APC-CY7 (HM48-1, BD), Cd150-PE-CY5 (TC15-12F12.2, Biolegend). Erythroid development RI-RV in bone marrow: Cd45.2-Pacific-Blue (104, Biolegend), Cd45.1-FITC (A20, Biolegend), Ter119-APC (TER-119, Biolegend), Cd71-PE (R17217, eBioscience). Bone marrow granulocytes: Cd45.2-Pacific-Blue (104, Biolegend), Cd45.1-FITC (A20, Biolegend), Gr1-PE, (RB6-8C5, BD); Mac1-APC (M1/70, Biolegend). Spleen, thymus and lymph nodes T Cells: Cd45.2-Pacific-Blue (104, Biolegend), Cd45.1-FITC (A20, Biolegend), Cd8-PE (53-6.7, Biolegend), Cd4-APC (RM4-5, eBioscience). Spleen, thymus and lymph node myeloid and B cells: Cd45.2-Pacific-Blue (104, Biolegend), Cd45.1-FITC (A20, Biolegend), Cd19-APC-CY7 (6D5, Biolegend), Mac1-APC (M1/70, Biolegend). We performed all FACS analyses on a BD Fortessa cytometer. […]

Clc1cccc(Cl)c1CSc1nnc(-c2cnccn2)s1 [Yoda1, 2-[5-[[(2,6-Dichlorophenyl)methyl]thio]-1,3,4-thiadiazol-2-yl]-pyrazine]
myeloperoxidase (MPO) level of donor neutrophils [1]: reconstitute to functional myeloid cells displaying sufficient MPO levels | T-cell receptor β (TCRβ) locus rearrangement in donor T-cells [2]: display T-cell receptor β (TCR β) rearrangement | hemoglobin type (β-major adult, εγ and β-H1 embryonic) expressed in donor erythroid cells [3]: reconstitutes to red cells containing adult hemoglobin | multi-lineage reconstitution (myeloid, T-cells, B-cells) in primary transplant (E11.5 AGM-derived HSCs): stimulates the formation of HSCs that reconstitute to the blood | multi-lineage reconstitution (myeloid, T-cells, B-cells) in primary transplant (E11.5 AGM-derived HSCs; listed as Piezo1 activator): normal multi-lineage reconstitution | peripheral blood chimerism / engraftment in primary transplant (E11.5 AGM-derived HSCs): stimulates the formation of HSCs | peripheral blood chimerism / engraftment in primary transplant (E11.5 AGM-derived HSCs; listed as Piezo1 activator): higher engraftment | multi-lineage reconstitution in secondary transplant (E11.5 AGM-derived HSCs; secondary recipients, week 12): produces HSCs that can serially reconstitute to the blood | peripheral blood chimerism in secondary transplant (E11.5 AGM-derived HSCs; secondary recipients, weeks 8-12, 2000 sorted Lin-Sca1+c-Kit+ HSPCs): produces HSCs that have serial engraftment and self-renewal capacities | amount of Lin-Sca1+c-Kit+Cd48-Cd150+ HSCs in bone marrow of primary recipients (E11.5 AGM-derived HSCs; vs. control AGM): two- to three-times higher amount

Source: patent US20230212517A1, “METHODS FOR GENERATING HEMATOPOIETIC STEM CELLS” (The Brigham and Women's Hospital, Inc., priority 2018, published 2023)
